Assay results: patent US12612412B2, “Antiviral heterocyclic compounds” (Enanta Pharmaceuticals, Inc., priority 2021, dated 2026)
Where two headings read alike, the source gives them in different places.

Key:
[1] = test system: genotype A, "Long" strain RSV; assay: RSV-A assay (CPE protection in Hep-2 cells, ATPlite readout); assay type: cell-based, Human respiratory syncytial virus (HRSV); conditions: MOI 0.1, CPE protection
In short: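 In this cytopathic-effect protection format, infected Hep-2 cultures (MOI 0.1) are exposed to compound for 5 days. Surviving cell ATP is quantified with ATPlite, and EC50 is determined.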

[2] = test system: HMPV clinical isolate TN/1501/A1; assay: HMPV antiviral assay Method-B (clinical isolate TN/1501/A1 in LLC-MK2 cells, ATP-Lite readout); assay type: cell-based, Human metapneumovirus (HMPV); conditions: hMPV WT1501 (clinical isolate TN/1501/A1), 6 days
In short: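 LLC-MK2 cells infected in suspension with TN/1501/A1 at MOI 0.014 in serum-free medium with 2 μg/mL TPCK-trypsin (final), incubated 6 days at 37° C. Compounds tested in duplicate, 10-point 3-fold dilutions from 10 μM. Cell health read by ATP-Lite luminescence, normalised to virus-only and cells-only controls; EC50 by four-parameter logistic fit.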

[3] = human respiratory syncytial virus, genotype A “Long” strain RSV, read-out: Human RSV-A (“Long”)
[4] = human metapneumovirus, LLC-MK2, 144 h
[5] = human respiratory syncytial virus, RSV-A Long strain, read-out: Human RSV-A (“Long”) EC50

SMILES	EC50 [1, 3] [nM]	EC50 [2, 4] [nM]	EC50 [1, 5] [nM]	EC50 ([1]; RSV-A Long strain, read-out: Human RSV-A (“Long”) EC50) [nM]	EC50 [2] [nM]
Cc1nc2c(OC3CC3)cc(C(=O)NC[C@](O)(c3cc4c(c(-c5ccc(F)c(Cl)c5)n3)OC[C@]4(C)C(N)=O)C3CC3)cc2cc1Cl [Example 638]	< 200	< 500	–	–	–
COc1cc(C(=O)NC[C@](O)(c2cc3c(c(-c4ccc(Cl)c(F)c4F)n2)OC[C@]3(C)C(N)=O)C(F)(F)F)cc2cn(C3CC3)nc12 [Example 929]	–	< 500	< 200	–	–
COc1cc(C(=O)NC[C@](O)(c2cc3c(c(-c4ccc(Cl)c(F)c4)n2)OC[C@]3(C)C(N)=O)C(F)(F)F)cc2cn(C3CC3)nc12 [Example 986]	–	< 500	< 200	–	–
COc1cc(C(=O)NC[C@@](O)(c2cc3c(c(-c4c(F)cc(F)cc4Cl)n2)OC[C@]3(C)C(N)=O)C(F)(F)F)cc2cn(C3CC3)nc12 [Example 1234]	–	> 500	> 200	–	–
COc1cc(C(=O)NC[C@@](O)(c2cc3c(c(C4=CCC(F)(F)CC4)n2)OC[C@]3(C)C(N)=O)C(F)(F)F)cc2cn(C3CC3)nc12 [Example 1229]	–	> 500	> 200	–	–
COc1cc(C(=O)NC[C@](O)(c2cc3c(c(-c4ccc(F)c(Cl)c4)n2)OC[C@]3(C)C(N)=O)C2(F)CC2)cc2cc(C3CC3)nn12 [Example 718]	< 200	> 500	–	–	–
COc1cc(C(=O)NC[C@](O)(c2cc3c(c(-c4ccc(F)c(Br)c4F)n2)OC[C@]3(C)C(N)=O)C2CC2)cc2cn(C(F)F)nc12 [Example 801]	< 200	< 500	–	–	–
COc1cc(C(=O)NCC(O)(c2cc3c(c(-c4cnc(C(F)(F)F)nc4)n2)OC[C@]3(C)C(N)=O)C(F)(F)F)cc2cn(C3CC3)nc12 (stereo partly shown) [Example 899]	–	> 500	> 200	–	–
Cc1nc2c(OC3CC3)cc(C(=O)NC[C@](O)(c3cc4c(c(-c5ccc(F)c(F)c5F)n3)OC[C@]4(C)C(N)=O)C(F)(F)F)cc2cc1Cl [Example 514]	< 200	< 500	–	–	–
COc1cc(C(=O)NC[C@](O)(c2cc3c(c(-c4ccc5c(c4)OC(F)(F)O5)n2)OC[C@]3(C)C(N)=O)C2(F)CC2)cc2cn(C(F)F)nc12 [Example 720]	< 200	< 500	–	–	–
C[C@@H](O)COc1ccc(C(=O)NC[C@](O)(c2cc3c(c(-c4ccc5c(c4)OC(F)(F)O5)n2)OC[C@]3(C)C(N)=O)C2CC2)cc1OC1CC1 [Example 829]	–	> 500	< 200	–	–
COc1cc(C(=O)NC[C@](O)(c2cc3c(c(-c4ccc5c(c4)OC(F)(F)O5)n2)OC[C@]3(C)C(N)=O)C2CC2)cn2cc(C3CC3)nc12 [Example 828]	–	< 500	< 200	–	–
COc1cc(C(=O)NC[C@](O)(c2cc3c(c(-c4cc(Cl)ccc4F)n2)OC[C@]3(C)C(N)=O)C2(F)CC2)cc2cn(C3CC3)nc12 [Example 735]	< 200	< 500	–	–	–
COc1cc(C(=O)NC[C@](O)(c2cc3c(c(-c4csc5ccccc45)n2)OC[C@]3(C)C(N)=O)C(F)(F)F)cc2cn(C3CC3)nc12 [Example 943]	–	> 500	< 200	–	–
COc1cc(C(=O)NC[C@](O)(c2nc(-c3ccc4c(c3)OC(F)(F)O4)c3c(c2F)[C@@](C)(C(N)=O)CO3)C2CC2)cc2cn(C3CC3)nc12 [Example 857]	–	< 500	< 200	–	–
C[C@]1(C(N)=O)COc2c1cc([C@@](O)(CNC(=O)c1ccc3nn(C4CC4)cc3c1)C1CC1)nc2-c1ccc(F)c(Cl)c1 [Example 815]	< 200	< 500	–	–	–
COc1cc(C(=O)NC[C@](O)(c2cc3c(c(-c4ccc(F)c(Cl)c4)n2)OC[C@]3(C)C(N)=O)C2(F)CC2)cc2sc(C)nc12 [Example 723]	< 200	< 500	–	–	–
COc1cc(C(=O)NC[C@](O)(c2cc3c(c(-c4cc(Cl)ccc4F)n2)OC[C@]3(C)C(N)=O)C2CC2)cc2cn(C3CC3)nc12 [Example 536]	< 200	< 500	–	–	–
COc1cc(C(=O)NC[C@@](O)(c2cc3c(c(-c4ccc5c(c4)OC(F)(F)C(F)(F)O5)n2)OC[C@]3(C)C(N)=O)C(F)(F)F)cc2cn(C3CC3)nc12 [Example 1219]	–	–	–	< 200	> 500
COc1ccc(-c2nc([C@@](O)(CNC(=O)c3cc(OC)c4nn(C5CC5)cc4c3)C(F)(F)F)cc3c2OC[C@]3(C)C(N)=O)cc1 [Example 924]	–	> 500	< 200	–	–
Cc1cnc2c(OC(F)F)cc(C(=O)NC[C@](O)(c3cc4c(c(-c5ccc(F)c(F)c5Cl)n3)OC[C@]4(C)C(N)=O)C3(F)CC3)cc2c1 [Example 746]	< 200	< 500	–	–	–
COc1cc(C(=O)NC[C@](O)(c2cc3c(c(-c4ccc(C#N)c(Cl)c4)n2)OC[C@]3(C)C(N)=O)C(F)(F)F)cc2cn(C(F)F)nc12 [Example 576]	< 200	> 500	–	–	–

SMILES	EC50 [1, 3] [nM]	EC50 [2, 4] [nM]	EC50 [1, 5] [nM]	EC50 ([1]; RSV-A Long strain, read-out: Human RSV-A (“Long”) EC50) [nM]	EC50 [2] [nM]
COc1cc(C(=O)NC[C@](O)(c2cc3c(c(-c4cnc(Cl)c(Cl)c4)n2)OC[C@]3(C)C(N)=O)C(F)(F)F)cc2cc(Cl)c(C)nc12 [Example 588]	< 200	> 500	–	–	–
COc1ncc2cc(C(=O)NC[C@](O)(c3cc4c(c(-c5ccc(F)cc5)n3)OC[C@]4(C)C(N)=O)C(F)(F)F)cc(OC)c2n1 [Example 1143]	–	> 500	< 200	–	–
COc1cc(C(=O)NC[C@](O)(c2cc3c(c(-c4ccc(F)c(Cl)c4)n2)OC[C@]3(C)C(N)=O)C2CC2)cc2cn(C(F)F)nc12 [Example 574]	< 200	< 500	–	–	–
Cc1cnc2c(OC(F)F)cc(C(=O)NC[C@](O)(c3cc4c(c(-c5ccc(F)cc5)n3)OC[C@]4(CF)C(N)=O)C3CC3)cc2c1 [Example 1058]	–	< 500	< 200	–	–
COc1cc(C(=O)NC[C@](O)(c2cc3c(c(-c4cnc(Cl)c(Cl)c4)n2)OC[C@]3(C)C(N)=O)C(F)(F)F)cc2cn(C(F)F)nc12 [Example 589]	< 200	> 500	–	–	–
COc1cc(C(=O)NC[C@](O)(c2cc3c(c(-c4ccc(F)c(Cl)c4F)n2)OC[C@]3(C)C(N)=O)C2(F)CC2)cc2cc(Br)cnc12 [Example 768]	< 200	< 500	–	–	–
COc1cc(C(=O)NC[C@](O)(c2cc3c(c(-c4ccc(F)cc4)n2)OC[C@]3(C)C(N)=O)C(F)(F)F)cc2c(C)onc12 [Example 888]	–	> 500	< 200	–	–
COc1cc(C(=O)NC[C@](O)(c2cc3c(c(-c4cc(F)c(F)c(Cl)c4)n2)OC[C@]3(C)C(N)=O)C2CC2)cc2cn(C3(F)CC3)nc12 [Example 791]	< 200	< 500	–	–	–
COc1cc(C(=O)NC[C@](O)(c2cc3c(c(-c4cc(Cl)c(F)cc4F)n2)OC[C@]3(C)C(N)=O)C(F)(F)F)cc2cn(C3(F)CC3)nc12 [Example 613]	< 200	< 500	–	–	–
COc1cc(C(=O)NC[C@](O)(c2cc3c(c(-c4ccc(C(F)(F)F)cc4)n2)OC[C@]3(C)C(N)=O)C2CC2)cc2cn(C3(F)CC3)nc12 [Example 794]	< 200	< 500	–	–	–
Cc1cnc2c(OCC(F)F)cc(C(=O)NC[C@](O)(c3cc4c(c(-c5ccc(F)cc5)n3)OC[C@]4(C)C(N)=O)C3CC3)cc2c1 [Example 498]	< 200	< 500	–	–	–
COc1cc(C(=O)NC[C@](O)(c2cc3c(c(-c4ccc(F)c(F)c4Cl)n2)OC[C@]3(C)C(N)=O)C2CC2)cc2ccc(C)nc12 [Example 1196]	–	> 500	< 200	–	–
COc1ccc(C(=O)NC[C@](O)(c2cc3c(c(-c4ccc(F)cc4)n2)OC[C@]3(C)C(N)=O)C(F)(F)F)n2cc(C)nc12 [Example 694]	< 200	> 500	–	–	–
COc1cc(C(=O)NC[C@](O)(c2cc3c(c(-c4ccc(F)c(Cl)c4F)n2)OC[C@]3(C)C(N)=O)C2CC2)cc2cc(C)c(Cl)nc12 [Example 1072]	–	< 500	< 200	–	–
Cc1cnc2c(Cl)cc(C(=O)NC[C@](O)(c3cc4c(c(-c5cc(F)c(F)cc5F)n3)OC[C@]4(C)C(N)=O)C(F)(F)F)cc2c1 [Example 1141]	–	< 500	< 200	–	–
COc1cc(C(=O)NC[C@](O)(c2cc3c(c(-c4ccc(F)c(Cl)c4F)n2)OC[C@]3(C)C(N)=O)C2(F)CC2)cc2cn(C(F)F)nc12 [Example 754]	< 200	< 500	–	–	–
COc1cc(C(=O)NC[C@](O)(c2cc3c(c(-c4ccc5c(c4)OC(F)(F)O5)n2)OC[C@]3(C(N)=O)C(F)F)C2CC2)cc2cc(Cl)c(C)nc12 [Example 1014]	–	< 500	< 200	–	–
COc1cc(C(=O)NC[C@](O)(c2cc3c(c(-c4cc(F)c(Cl)cc4F)n2)OC[C@]3(C)C(N)=O)C2CC2)cc2cn(C(F)F)nc12 [Example 1178]	–	< 500	< 200	–	–
COc1cc(C(=O)NC[C@](O)(c2cc3c(c(-c4cc(F)c(Cl)cc4F)n2)OC[C@]3(C)C(N)=O)C(F)(F)F)cc2cn(C3CC3)nc12 [Example 932]	–	< 500	< 200	–	–
COc1cc(C(=O)NC[C@](O)(c2cc3c(c(-c4ccc(C(F)(F)F)c(Cl)c4)n2)OC[C@]3(C)C(N)=O)C(F)(F)F)cc2cn(C(F)F)nc12 [Example 580]	< 200	> 500	–	–	–
COc1cc(C(=O)NC[C@](O)(c2cc3c(c(-c4c(F)cc(F)cc4F)n2)OC[C@]3(C)C(N)=O)C(F)(F)F)cc2cn(C3CC3)nc12 [Example 997]	–	< 500	< 200	–	–
COc1cc(C(=O)NC[C@](O)(c2cc3c(c(-c4csc5c(F)cccc45)n2)OC[C@]3(C)C(N)=O)C2CC2)cc2cn(C(F)F)nc12 [Example 594]	< 200	< 500	–	–	–
